Columns and labels:
T-47D (breast) = experiment: Antiproliferative activity, T-47D; assay type: cell-based, human
Description: (§1) The in vitro antiproliferative activity of investigated compounds was evaluated against six human solid tumor cell lines: A549 (non-small cell lung), HBL-100, (breast), HeLa (cervix), SW1573 (non-small cell lung), as drug sensitive lines, T-47D (breast) and WiDr (colon) as drug resistant lines. These cell lines were a kind gift from Prof. G. J. Peters (VU Medical Center, Amsterdam, The Netherlands). For selectivity studies, the human fibroblasts BJ-hTert cell line was used, which was obtained from Dr. R. Freire (HUC, Tenerife, Canary Islands). Cells were kept in culture medium under standard conditions: RPMI 1640 medium, fetal bovine serum (5%), glutamine (2 mM), penicillin G (100 units/mL) and streptomycin (0.1 mg/mL). Antiproliferative tests were conducted as described earlier (Skehan et al., [1990]; Miranda et al., [2006]). Tested compounds were dissolved in DMSO at an initial concentration of 40 mM. DMSO was used as negative control (0.25% v/v). Antiproliferative activity of the compounds was expressed as GI50, which is the concentration of the compound that inhibits 50% of the culture growth.

MAO A = biological target: T1, MAO A (Homo sapiens, UniProt P21397); experiment: MAO A inhibition, discontinuous fluorimetric kynuramine assay; assay type: biochemical; details: for inhibition at 1 µM: 1 μM inhibitor, mean ± SD, n = 2, normalized to control
T1 construct: purchased Sigma-Aldrich
T1 sequence (P21397 1-527): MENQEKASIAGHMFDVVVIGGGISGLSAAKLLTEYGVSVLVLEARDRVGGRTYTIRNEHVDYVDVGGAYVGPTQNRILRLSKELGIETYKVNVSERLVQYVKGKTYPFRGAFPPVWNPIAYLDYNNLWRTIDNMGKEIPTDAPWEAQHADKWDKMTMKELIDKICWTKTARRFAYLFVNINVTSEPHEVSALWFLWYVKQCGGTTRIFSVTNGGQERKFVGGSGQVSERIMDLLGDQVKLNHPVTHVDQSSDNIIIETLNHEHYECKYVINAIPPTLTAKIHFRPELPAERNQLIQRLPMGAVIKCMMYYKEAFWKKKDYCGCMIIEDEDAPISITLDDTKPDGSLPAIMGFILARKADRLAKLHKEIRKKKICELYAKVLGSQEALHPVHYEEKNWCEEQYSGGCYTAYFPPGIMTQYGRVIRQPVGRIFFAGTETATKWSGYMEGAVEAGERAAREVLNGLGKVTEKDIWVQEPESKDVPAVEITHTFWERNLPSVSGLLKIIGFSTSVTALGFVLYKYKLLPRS
Description: MAO A and B inhibition capacities were investigated using a discontinuous fluorimetric assay (Meiring et al., [2013]) as described previously by using human recombinant membrane-bound MAO purchased from Sigma-Aldrich (Affini et al., [2018]). Briefly, remained enzyme activity with inhibitor, either 1 μM (one-point) or concentrations ranging from 0.0001 to 10 μM, was assessed in the presence of kynuramine [2 × KM, KM = 20 μM (MAO A), KM = 30 μM (MAO B)] in potassium phosphate buffer (pH 7.4). Reactions were started by addition of enzyme and stopped by manual addition of sodium hydroxide (2 N) after 20 min. Enzyme activity was determined by detection of 4-hydroxyquinoline (λEx = 320 nm, λEm = 405 nm). Data were analyzed using GraphPad PRISM 6. For one-point measurements data were calculated as percentage of control and expressed as mean ± standard deviation (%). […] Data were obtained from two (one-point measurements) or at least three (IC50 values) independent experiments, each performed in duplicates.

WiDr (colon) = experiment: Antiproliferative activity, WiDr; assay type: cell-based, human; details: for GI50: Homo sapiens
Description: as §1

[1] = Total reducing power (TRP), modified potassium ferricyanide reduction method; details: concentration providing 0.500 of absorbance at 700 nm; mean ± SD, n = 3
Description: The mixture containing 0.5 mL of phosphate buffer (0.2 M, pH = 6.6), 0.5 mL of K3[Fe(CN)6] (1%; w/v) and 0.5 mL of the samples (100–1,500 μM) was incubated at 50°C for 20 min. A volume of 0.5 mL of trichloroacetic acid (TCA, 10%; w/v), 0.5 mL of Milli-Q water and 0.5 mL of FeCl3 (0.1%; w/v) was added, followed by intensive vortexing. The absorbance of the resulting mixture was measured after 60 min at 700 nm using phosphate buffer as blank (Oyaizu, [1986]).
Volume of 0.4 mL of sample solution (50–1,000 μM) was mixed with 1.6 mL of reagent solution [0.6 M H2SO4, 28 mM Na3PO4, and 4 mM (NH4)2MoO4] and resulting mixtures were incubated at 95°C for 90 min. The cooled reaction mixtures were then centrifuged for 10 min (3,000 rpm). The absorbance of the supernatant solution was measured, 1 h after centrifugation, at 695 nm against reagent solution as blank. An increased absorbance in reading in both assays indicated increased antioxidant power, expressed as EC50 values (the sample concentration giving absorbance of 0.500 from the graph of absorbance at 700 nm or 695 nm against compound concentration) (Prieto et al., [1999]).

[2] = tested on: six human solid tumor cell lines; experiment: Antiproliferative activity, panel as a whole; assay type: cell-based; set-up: key: moderate activity (GI50 = 10–100 μM); good activity (GI50 = 1–10 μM); inactive (GI50 > 100 μM); details: five cell lines of the six
Description: as §1

With `C(=NNc1nc(-c2ccccc2)c[se]1)c1ccccc1` [Compound 1, 2-(2-benzylidenehydrazinyl)-4-phenyl-1,3-selenazole] as the compound, how does the GI50 (T-47D (breast); Homo sapiens, T47D) read?
The GI50 was 6.4 ± 0.9 µM.

And the “antiproliferative activity class T-47D” value (T-47D (breast); T-47D)?
The value was “good activity (good activity (GI50 = 1–10 μM))”.

What about the inhibition at 1 µM (MAO A) of the same compound?
Its inhibition at 1 µM is -6.8 ± 12.6%.

And the IC50 (MAO A; mean, 95% CI, at least three experiments)?
The IC50 was over 10 µM.

What about the “antiproliferative activity class WiDr” value (WiDr (colon)) of the same compound?
The value was “good activity (good activity (GI50 = 1–10 μM))”.

What about the GI50 (WiDr (colon)) of the same compound?
The GI50 was 4.8 ± 0.8 µM.

What about the EC50 [1] of the same compound?
Its EC50 is 990 ± 92 µM.

Which GI50 (T-47D (breast); Homo sapiens, T47D, T-47D) does the source give for `COc1ccc(-c2c[se]c(NN=Cc3ccccc3)n2)cc1` [Compound 1-OMe, 2-(2-benzylidenehydrazinyl)-4-(4-methoxyphenyl)-1,3-selenazole] here?
Its GI50 is over 100 µM.

What about the “antiproliferative activity class against five cell lines” value [2] of the same compound?
The value was “inactive”.

What about the inhibition at 1 µM (MAO A) of the same compound?
The inhibition at 1 µM was 32.4 ± 3.3%.

And the GI50 (WiDr (colon))?
Its GI50 is over 100 µM.

And the EC50 [1]?
The EC50 was 806 ± 85 µM.

For `O=[N+]([O-])c1ccccc1C=NNc1nc(-c2ccccc2)c[se]1` [Compound 2, 2-(2-(2-nitrobenzylidene)hydrazinyl)-4-phenyl-1,3-selenazole], which GI50 (T-47D (breast); Homo sapiens, T47D, T-47D) is on record?
Its GI50 is about 10 µM.

What about the GI50 (T-47D (breast); T-47D) of the same compound?
The GI50 was 12 ± 1.5 µM.

What about the inhibition at 1 µM (MAO A) of the same compound?
The inhibition at 1 µM was 26.5 ± 3.7%.

What about the “antiproliferative activity class WiDr” value (WiDr (colon)) of the same compound?
The value was “good activity (good activity (GI50 = 1–10 μM))”.

What about the GI50 (WiDr (colon)) of the same compound?
The GI50 was 5 ± 0.9 µM.

What about the EC50 [1] of the same compound?
The EC50 was 390 ± 48 µM.

What does the source list for `Cc1ccc(-c2c[se]c(NN=Cc3ccccc3[N+](=O)[O-])n2)cc1` [Compound 2-Me, 2-(2-(2-nitrobenzylidene)hydrazinyl)-4-(p-tolyl)-1,3-selenazole]?
GI50 (T-47D (breast); Homo sapiens, T47D, T-47D): ~10 µM; GI50 (T-47D (breast); T-47D): 13 ± 1.3 µM; inhibition at 1 µM (MAO A): 17.2 ± 1.9%; antiproliferative activity class WiDr (WiDr (colon)): good activity (good activity (GI50 = 1–10 μM)); GI50 (WiDr (colon)): 8.2 ± 1 µM; EC50 [1]: 470 ± 41 µM

Which GI50 (T-47D (breast); Homo sapiens, T47D, T-47D) does the source give for `COc1ccc(-c2c[se]c(NN=Cc3ccccc3[N+](=O)[O-])n2)cc1` [Compound 2-OMe, 4-(4-methoxyphenyl)-2-(2-(2-nitrobenzylidene)hydrazinyl)-1,3-selenazole] here?
Its GI50 is 36 ± 8.6 µM.

What about the inhibition at 1 µM (MAO A) of the same compound?
The inhibition at 1 µM was 28 ± 4%.

What about the GI50 (WiDr (colon)) of the same compound?
Its GI50 is 22 ± 2.3 µM.

What about the EC50 [1] of the same compound?
The EC50 was 560 ± 53 µM.

With `O=[N+]([O-])c1cccc(C=NNc2nc(-c3ccccc3)c[se]2)c1` [Compound 3, 2-(2-(3-nitrobenzylidene)hydrazinyl)-4-phenyl-1,3-selenazole] as the compound, how does the GI50 (T-47D (breast); Homo sapiens, T47D, T-47D) read?
The GI50 was 52 ± 13 µM.

What about the inhibition at 1 µM (MAO A) of the same compound?
The inhibition at 1 µM was 32.7 ± 6.2%.

What about the GI50 (WiDr (colon)) of the same compound?
The GI50 was 40 ± 0.6 µM.

What about the EC50 [1] of the same compound?
The EC50 was 420 ± 45 µM.

Which GI50 (T-47D (breast); Homo sapiens, T47D, T-47D) does the source give for `Cc1ccc(-c2c[se]c(NN=Cc3cccc([N+](=O)[O-])c3)n2)cc1` [Compound 3-Me, 2-(2-(3-nitrobenzylidene)hydrazinyl)-4-(p-tolyl)-1,3-selenazole] here?
The GI50 was 46 ± 9.7 µM.

And the inhibition at 1 µM (MAO A)?
The inhibition at 1 µM was 13.4 ± 2.4%.

And the GI50 (WiDr (colon))?
The GI50 was 55 ± 19 µM.

And the EC50 [1]?
The EC50 was 480 ± 50 µM.

What does the source list for `COc1ccc(-c2c[se]c(NN=Cc3cccc([N+](=O)[O-])c3)n2)cc1` [Compound 3-OMe, 4-(4-methoxyphenyl)-2-(2-(3-nitrobenzylidene)hydrazinyl)-1,3-selenazole]?
GI50 (T-47D (breast); Homo sapiens, T47D, T-47D): 67 ± 2.2 µM; inhibition at 1 µM (MAO A): 31.2 ± 1.6%; GI50 (WiDr (colon)): > 100 µM; EC50 [1]: 488 ± 46 µM
